How the values were obtained:
[1] = molecular target: T1, TBK1 (Homo sapiens, UniProt Q9UHD2); test: TBK biochemical assay; conditions: 10 point 1:4 dose response, 30 uM top concentration, 90 min at 25° C., LabChip EZ Reader II; read-out: TBK1_IC50
T1 sequence (Q9UHD2 1-729): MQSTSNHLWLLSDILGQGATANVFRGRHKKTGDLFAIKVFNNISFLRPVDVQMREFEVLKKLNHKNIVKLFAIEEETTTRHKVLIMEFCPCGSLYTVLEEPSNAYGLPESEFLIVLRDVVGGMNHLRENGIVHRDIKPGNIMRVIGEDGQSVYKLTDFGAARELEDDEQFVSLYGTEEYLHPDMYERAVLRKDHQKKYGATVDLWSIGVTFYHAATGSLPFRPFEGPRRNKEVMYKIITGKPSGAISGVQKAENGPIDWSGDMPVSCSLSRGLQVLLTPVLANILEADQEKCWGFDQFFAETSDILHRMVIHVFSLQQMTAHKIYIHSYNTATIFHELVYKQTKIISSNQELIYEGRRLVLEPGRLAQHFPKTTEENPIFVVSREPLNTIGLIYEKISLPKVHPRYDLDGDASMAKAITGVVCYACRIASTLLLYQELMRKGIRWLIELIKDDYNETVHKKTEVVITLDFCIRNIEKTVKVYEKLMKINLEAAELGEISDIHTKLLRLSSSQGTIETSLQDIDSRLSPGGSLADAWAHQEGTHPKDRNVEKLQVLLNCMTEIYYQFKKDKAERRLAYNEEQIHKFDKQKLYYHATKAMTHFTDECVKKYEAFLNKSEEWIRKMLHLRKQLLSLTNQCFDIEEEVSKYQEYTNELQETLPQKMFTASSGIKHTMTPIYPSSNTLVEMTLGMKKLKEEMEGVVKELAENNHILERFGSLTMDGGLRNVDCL
Outline: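 Read-out was a Caliper LabChip mobility-shift assay, run after a 90-min, 25 °C reaction of TBK1 with substrate and compounds, quenched with stop buffer. Control wells received staurosporine at 10 uM final.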

[2] = molecular target: T2, IKKε (Homo sapiens, UniProt Q14164); test: IKKε biochemical assay; conditions: 10 point 1:4 dose response, 30 uM top concentration, 90 min at 25° C., LabChip EZ Reader II; read-out: IKKε_IC50
T2 sequence (Q14164 1-716): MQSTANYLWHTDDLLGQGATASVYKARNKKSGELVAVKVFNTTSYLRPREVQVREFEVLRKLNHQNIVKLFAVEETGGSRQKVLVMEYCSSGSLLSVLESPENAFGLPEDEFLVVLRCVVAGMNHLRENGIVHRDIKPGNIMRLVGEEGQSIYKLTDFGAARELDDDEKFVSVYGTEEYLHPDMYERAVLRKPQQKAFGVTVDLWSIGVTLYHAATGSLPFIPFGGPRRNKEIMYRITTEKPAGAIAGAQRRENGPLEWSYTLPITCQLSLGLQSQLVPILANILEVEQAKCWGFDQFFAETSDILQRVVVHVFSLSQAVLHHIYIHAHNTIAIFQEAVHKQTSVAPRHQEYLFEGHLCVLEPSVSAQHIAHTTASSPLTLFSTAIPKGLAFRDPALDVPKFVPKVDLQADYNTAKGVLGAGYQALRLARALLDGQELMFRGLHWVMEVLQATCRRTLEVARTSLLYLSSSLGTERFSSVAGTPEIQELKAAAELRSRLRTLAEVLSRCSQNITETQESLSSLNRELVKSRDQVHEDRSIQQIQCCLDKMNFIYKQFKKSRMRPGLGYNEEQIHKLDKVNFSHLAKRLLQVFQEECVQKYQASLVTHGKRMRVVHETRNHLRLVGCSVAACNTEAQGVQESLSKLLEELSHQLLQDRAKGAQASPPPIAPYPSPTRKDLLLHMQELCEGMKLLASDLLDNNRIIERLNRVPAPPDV
Outline: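 Mobility-shift LabChip read-out followed a 90 min, 25° C. reaction of IKKε with substrate and test compound, with DMSO held at 1% final. Reactions were ended with stop buffer. Wells with 10 uM final staurosporine defined complete inhibition, and DMSO-only wells the uninhibited level.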

SMILES: COc1nc(Nc2nccc(-c3ccc(OC4CCN(C(=O)CC#N)CC4(F)F)c(C#N)c3)n2)ccc1N1CCN(C2COC2)CC1 (stereo not shown) [Example 253, 2-[1-(2-Cyano-acetyl)-3,3-difluoro-piperidin-4-yloxy]-5-{2-[6-methoxy-5-(4-oxetan-3-yl-piperazin-1-yl)-pyridin-2-ylamino]-pyrimidin-4-yl}-benzonitrile]
- IC50 [1]: < 100 nM
- IC50 [2]: < 100 nM

SMILES: COc1nc(Nc2nccc(-c3ccc(OC4CCN(C(=O)[C@@H]5CCCO5)CC4(F)F)c(C#N)c3)n2)ccc1N1CCN(C2COC2)CC1 (stereo partly drawn) [Example 254, 2-[3,3-Difluoro-1-((S)-tetrahydro-furan-2-carbonyl)-piperidin-4-yloxy]-5-{2-[6-methoxy-5-(4-oxetan-3-yl-piperazin-1-yl)-pyridin-2-ylamino]-pyrimidin-4-yl}-benzonitrile]
- IC50 [1]: < 100 nM
- IC50 [2]: < 100 nM

SMILES: COc1nc(Nc2nccc(-c3ccc(OC4CCN(C(=O)[C@@H]5CC5(F)F)CC4(F)F)c(C#N)c3)n2)ccc1N1CCN(C2COC2)CC1 (stereo partly drawn) [Example 255, 2-[1-((S)-2,2-Difluoro-cyclopropanecarbonyl)-3,3-difluoro-piperidin-4-yloxy]-5-{2-[6-methoxy-5-(4-oxetan-3-yl-piperazin-1-yl)-pyridin-2-ylamino]-pyrimidin-4-yl}-benzonitrile]
- IC50 [1]: < 100 nM
- IC50 [2]: < 100 nM

SMILES: COc1nc(Nc2nccc(-c3ccc(OC4CCN(C(=O)[C@@H]5CCC(=O)N5)CC4(F)F)c(C#N)c3)n2)ccc1N1CCN(C2COC2)CC1 (stereo partly drawn) [Example 256, 2,2-[3,3-Difluoro-1-((S)-5-oxo-pyrrolidine-2-carbonyl)-piperidin-4-yloxy]-5-{2-[6-methoxy-5-(4-oxetan-3-yl-piperazin-1-yl)-pyridin-2-ylamino]-pyrimidin-4-yl}-benzonitrile]
- IC50 [1]: < 100 nM
- IC50 [2]: < 100 nM

SMILES: COc1nc(Nc2nccc(-c3ccc(OC4CCN(C(=O)[C@H](C)CO)CC4(F)F)c(C#N)c3)n2)ccc1N1CCN(C2COC2)CC1 (stereo partly drawn) [Example 257, 2-[3,3-Difluoro-1-((R)-3-hydroxy-2-methyl-propionyl)-piperidin-4-yloxy]-5-{2-[6-methoxy-5-(4-oxetan-3-yl-piperazin-1-yl)-pyridin-2-ylamino]-pyrimidin-4-yl}-benzonitrile]
- IC50 [1]: < 100 nM
- IC50 [2]: < 100 nM

SMILES: CC[C@H](O)C(=O)N1CCC(Oc2ccc(-c3ccnc(Nc4ccc(N5CCN(C6COC6)CC5)c(OC)n4)n3)cc2C#N)C(F)(F)C1 (stereo partly drawn) [Example 258, 2-[3,3-Difluoro-1-((S)-2-hydroxy-butyryl)-piperidin-4-yloxy]-5-{2-[6-methoxy-5-(4-oxetan-3-yl-piperazin-1-yl)-pyridin-2-ylamino]-pyrimidin-4-yl}-benzonitrile]
- IC50 [1]: < 100 nM
- IC50 [2]: < 100 nM

SMILES: COc1nc(Nc2nccc(-c3ccc(OC4CCN(C(=O)C(C)F)CC4(F)F)c(C#N)c3)n2)ccc1N1CCN(C2COC2)CC1 (stereo not shown) [Example 259, 2-[3,3-Difluoro-1-(2-fluoro-propionyl)-piperidin-4-yloxy]-5-{2-[6-methoxy-5-(4-oxetan-3-yl-piperazin-1-yl)-pyridin-2-ylamino]-pyrimidin-4-yl}-benzonitrile]
- IC50 [1]: < 100 nM
- IC50 [2]: < 100 nM

SMILES: COc1nc(Nc2nccc(-c3ccc(OC4CCN(C(=O)[C@@H](O)CO)CC4(F)F)c(C#N)c3)n2)ccc1N1CCN(C2COC2)CC1 (stereo partly drawn) [Example 260, 2-[1-((S)-2,3-Dihydroxy-propionyl)-3,3-difluoro-piperidin-4-yloxy]-5-{2-[6-methoxy-5-(4-oxetan-3-yl-piperazin-1-yl)-pyridin-2-ylamino]-pyrimidin-4-yl}-benzonitrile]
- IC50 [1]: < 100 nM
- IC50 [2]: < 100 nM

SMILES: COc1nc(Nc2nccc(-c3ccc(OC4CCN(C(=O)[C@@H](O)CO)CC4(F)F)c(C#N)c3)n2)ccc1N1CCN(C2COC2)[C@H](C)C1 (stereo partly drawn) [Example 262, 2-[1-((S)-2,3-Dihydroxy-propionyl)-3,3-difluoro-piperidin-4-yloxy]-5-{2-[6-methoxy-5-((R)-3-methyl-4-oxetan-3-yl-piperazin-1-yl)-pyridin-2-ylamino]-pyrimidin-4-yl}-benzonitrile]
- IC50 [1]: < 100 nM
- IC50 [2]: < 100 nM

SMILES: COc1nc(Nc2nccc(-c3ccc(OC4(C)CCNCC4(F)F)c(C#N)c3)n2)ccc1N1CCN(C2COC2)CC1 (stereo not shown) [Example 263, 2-(3,3-Difluoro-4-methyl-piperidin-4-yloxy)-5-{2-[6-methoxy-5-(4-oxetan-3-yl-piperazin-1-yl)-pyridin-2-ylamino]-pyrimidin-4-yl}-benzonitrile]
- IC50 [1]: < 100 nM
- IC50 [2]: < 100 nM

SMILES: COc1nc(Nc2nccc(-c3ccc(OC4(C)CCN(C(=O)[C@@H](O)CO)CC4(F)F)c(C#N)c3)n2)ccc1N1CCN(C2COC2)CC1 (stereo partly drawn) [Example 264, 2-[1-((S)-2,3-Dihydroxy-propionyl)-3,3-difluoro-4-methyl-piperidin-4-yloxy]-5-{2-[6-methoxy-5-(4-oxetan-3-yl-piperazin-1-yl)-pyridin-2-ylamino]-pyrimidin-4-yl}-benzonitrile]
- IC50 [1]: < 100 nM
- IC50 [2]: < 100 nM

SMILES: COc1nc(Nc2nccc(-c3ccc(OC4(C)CCN(C(=O)[C@H](C)O)CC4(F)F)c(C#N)c3)n2)ccc1N1CCN(C2COC2)CC1 (stereo partly drawn) [Example 265, 2-[3,3-Difluoro-1-((S)-2-hydroxy-propionyl)-4-methyl-piperidin-4-yloxy]-5-{2-[6-methoxy-5-(4-oxetan-3-yl-piperazin-1-yl)-pyridin-2-ylamino]-pyrimidin-4-yl}-benzonitrile]
- IC50 [1]: < 100 nM
- IC50 [2]: < 100 nM

SMILES: COc1nc(Nc2nccc(-c3ccc(OC4CCN(C(=O)[C@H](C)O)C(C)C4)c(C#N)c3)n2)ccc1N1CCN(C2COC2)CC1 (stereo partly drawn) [Example 266, 2-[1-((S)-2-Hydroxy-propionyl)-2-methyl-piperidin-4-yloxy]-5-{2-[6-methoxy-5-(4-oxetan-3-yl-piperazin-1-yl)-pyridin-2-ylamino]-pyrimidin-4-yl}-benzonitrile]
- IC50 [1]: < 100 nM
- IC50 [2]: < 100 nM

SMILES: COc1nc(Nc2nccc(-c3ccc(OC4(C)CCNCC4)c(C#N)c3)n2)ccc1N1CCN(C2COC2)CC1 [Example 267, 5-{2-[6-Methoxy-5-(4-oxetan-3-yl-piperazin-1-yl)-pyridin-2-ylamino]-pyrimidin-4-yl}-2-(4-methyl-piperidin-4-yloxy)-benzonitrile]
- IC50 [1]: < 100 nM
- IC50 [2]: < 100 nM

SMILES: COc1nc(Nc2nccc(-c3ccc(OC4(C)CCN(C(=O)[C@H](C)O)CC4)c(C#N)c3)n2)ccc1N1CCN(C2COC2)CC1 [Example 268, 2-[1-((S)-2-Hydroxy-propionyl)-4-methyl-piperidin-4-yloxy]-5-{2-[6-methoxy-5-(4-oxetan-3-yl-piperazin-1-yl)-pyridin-2-ylamino]-pyrimidin-4-yl}-benzonitrile]
- IC50 [1]: < 100 nM
- IC50 [2]: 100 to 1000 nM

SMILES: COc1nc(Nc2nccc(-c3ccc(OC4(C)CCN(C(=O)[C@@H](O)CO)CC4)c(C#N)c3)n2)ccc1N1CCN(C2COC2)CC1 [Example 269, 2-[1-((S)-2,3-Dihydroxy-propionyl)-4-methyl-piperidin-4-yloxy]-5-{2-[6-methoxy-5-(4-oxetan-3-yl-piperazin-1-yl)-pyridin-2-ylamino]-pyrimidin-4-yl}-benzonitrile]
- IC50 [1]: < 100 nM
- IC50 [2]: < 100 nM

SMILES: COc1nc(Nc2nccc(-c3ccc(OC4CCNCC4C)c(C#N)c3)n2)ccc1N1CCN(C2COC2)CC1 (stereo not shown) [Example 270, 5-{2-[6-Methoxy-5-(4-oxetan-3-yl-piperazin-1-yl)-pyridin-2-ylamino]-pyrimidin-4-yl}-2-(3-methyl-piperidin-4-yloxy)-benzonitrile]
- IC50 [1]: < 100 nM
- IC50 [2]: < 100 nM

— US20230019491A1, “PYRIMIDINE TBK/IKKe INHIBITOR COMPOUNDS AND USES THEREOF” (Merck Patent GmbH, priority 2017, published 2023)
